The values below come from patent US12390405B2, “Personal care compositions” (Colgate-Palmolive Company, priority 2021, dated 2025).

Each structure is given as a SMILES string.

The test system of series [1] is darkly pigmented human epidermal melanocyte cell model. The series is described as follows: Melanin synthesis in melanocytes (NaOH solubilized melanin, 490 nm), Table 2. The format is cell-based. Conditions: for Change from untreated (reduction in melanin synthesis) / Melanin Synthesis: after 5 day of treatment; for Melanin Synthesis: relative to untreated (100%); for inhibits melanin synthesis: 5 day. On the procedure:
(§1) In order to evaluate the melanin synthesis inhibition activity of hexylresorcinol, licorice extract and the combination thereof at certain concentrations, In vitro studies are conducted on darkly pigmented human epidermal melanocyte cell model. Darkly pigmented melanocytes cells are placed on 24-well plates. As a positive control, 0.00025% hydroquinone is used. Hexylresorcinol, licorice extract, and hydroquinone solutions are prepared as follows. […] For combination treatment, 2× solutions of hexylresorcinol and licorice extract are mixed. For single treatment, 2× solutions are mixed with the equal volume of media. Test samples are listed in Table 1. • 0.5 ml of each test sample is directly applied to the 24-well plates in triplicates. After 5 day of treatment, melanocyte viability and melanin synthesis are measured. Melanin synthesis is quantified as follows. Cells are first rinsed with PBS to remove any residual solution and 200 μl NaOH is added to each cell. The plates are shaken for 4 hours to solubilize melanin produced by melanocytes. Solubilized melanin is measured by a spectrometer at 490 nm.

Series [2] shares this test system. As to the kind of experiment: Melanocyte viability, Alamar Blue. It counts as cell-based. Conditions: melanocytes, after 5 day of treatment, relative to untreated (100%). On the procedure:
as §1, with “Melanocyte viability” for “Melanin synthesis”, “using Alamar Blue solution, which is a nontoxic dye commonly used” for “as follows. Cells are first rinsed with PBS”, “assess cell viability.” for “remove any residual solution and 200 μl NaOH is added to each cell. The plates are shaken for 4 hours to solubilize melanin produced by melanocytes. Solubilized melanin is measured by a spectrometer at 490 nm.”
(Resazurin is reduced to fluorescent resorufin, in cell work by metabolically active cells.)

The subject of another series is melanocytes. As to the kind of experiment: Melanin synthesis inhibition, separate assay, Table 2a. It counts as cell-based, human. Conditions: sample concentrations per Table 2b. How it is done: In a separate assay melanin synthesis is quantified as follows. Cells are first rinsed with PBS to remove any residual solution and 200 μl NaOH is added to each cell. The plates are shaken for 4 hours to solubilize melanin produced by melanocytes. Solubilized melanin is measured by a spectrometer at 490 nm.

Series [3] deals with human skin (leftover from abdominal plastic surgery). As to the kind of experiment: Wound healing on ex vivo human skin. On the procedure: The ability of various molecular weights of hyaluronic acid (HA) are tested to determine their respective properties relative to wound healing and repair.
In this study, human skin (leftover from abdominal plastic surgery) is used. An N=6 skin samples are used for each test condition for statistical comparison. Before treatment with test samples and positive control (Allantoin), a controlled mean wound of about 1 mm length is created on the skin by removing epidermis using a diamond spurr tip. Four microliters of test samples or Allantoin (positive control) are applied on the wound followed by incubation of the tissue for 6 days, and then harvesting of the tissues in order for hematoxylin and eosin staining for morphological analysis. The length of the wounds are measured and values are compared for statistical comparison with untreated Day 6 (self-healing of the skin in absence of any treatment).

In another series the test system is MelanoDerm tissues. As to the kind of experiment: Melanin synthesis inhibition in MelanoDerm tissues, separate assay, Table 3a. It counts as cell-based. On the procedure:
In a separate assay, further comparisons are made to 2% kojic acid solution, which is the industry standard for in vitro tissue testing, and market-based product that is hydroquinone free (“MB HQ Free”) but contains kojic acid and other skin brightening ingredients. In total, 31 prototypes are prepared, and 26 of those are assessed in MelanoDerm™ tissues, as described above.

For the compound `CCCCCCc1ccc(O)cc1O` [HR1, hexylresorcinol], in series [1], the “Change from untreated (reduction in melanin synthesis)” value is 6.9% and the “Melanin Synthesis” value was 93.1% ± 0.7%. Besides, the Viability in series [2] was 95% ± 3%.

Regarding `CCCCCCc1ccc(O)cc1O` [HR 2, hexylresorcinol], the “Melanin Synthesis Inhibition (% inhibition vs. untreated)” value in the series with melanocytes is listed as 10.2%. As for `Oc1ccc(O)cc1` [Control, hydroquinone, reference compound], the “Melanin Synthesis Inhibition (% inhibition vs. untreated)” value with melanocytes is on record as 20.6%. Also, in series [1], the “Change from untreated (reduction in melanin synthesis)” value is 24.3% and the “Melanin Synthesis” value is 75.7% ± 0.9%. In addition, the Viability in series [2] is on record as 92% ± 1%. `CCCCCCc1ccc(O)cc1O` [HR 4, hexylresorcinol]: the “Melanin Synthesis Inhibition (% inhibition vs. untreated)” value with melanocytes turned out to be 8.8%. As to `CCCCCCc1ccc(O)cc1O` [HR 1, hexylresorcinol], the “Melanin Synthesis Inhibition (% inhibition vs. untreated)” value with melanocytes was 10.4%. As to `CCCCCCc1ccc(O)cc1O` [hexylresorcinol], the inhibits melanin synthesis came out at 2.1% in series [1] (0.0001% hexylresorcinol) and 6.9% in series [1] (0.00025% hexylresorcinol). As to `NC(=O)NC1NC(=O)NC1=O` (stereo not shown) [Allantoin], the “Percent (%) Reduction in Wound Width Relative to the Untreated Day 6” value in series [3] (Day 6) is recorded as 68%. Further, the “Mean Wound Width Day 6” value in series [3] (Day 6 after four microliters applied on wound, N=6, untreated Day 6 874) was 280 μm. Turning to `CCCCCCc1ccc(O)cc1O` [HR2, hexylresorcinol], in series [1], the “Change from untreated (reduction in melanin synthesis)” value worked out at 2.1% and the “Melanin Synthesis” value was 97.9% ± 2.1%. For the same compound, the Viability in series [2] is recorded as 105% ± 8%.

For the compound `O=c1cc(CO)occ1O` [Kojic Acid, kojic acid], in the series on MelanoDerm tissues, the “Melanin Synthesis Inhibition Relative to Untreated (% inhibition)” value came out at 73.51%.

For `CCCCCCc1ccc(O)cc1O` [HR 3, hexylresorcinol], the “Melanin Synthesis Inhibition (% inhibition vs. untreated)” value in the series with melanocytes is 9.3%.
